From patent US20110082087A1, “COMPOUNDS FOR TREATING PAIN” (Edificio ICAT, priority 2008, published 2011)

What was measured:
[1] = Differential quenching, depth of location in the membrane; assay type: physicochemical; conditions: phenolic ring; differential quenching with 5-NS and 16-NS
Excerpt: Differential quenching experiments were used to estimate the depth of location of the phenolic ring of the peptides, based on a Brownian dynamics simulation (Fernandes M. X., Garcia de la Torre J., Castanho M. A. 2002. Joint determination by Brownian dynamics and fluorescence quenching of the in-depth location profile of biomolecules in membranes. Anal. Biochem. 307: 1-12.) This methodology allows to determine where the molecules are preferably inserted along the lipid bilayer. The peptides with the amide group show a greater depth of insertion, 4 Å—KTP-NH2 and 3 Å—Ibu-KTP-NH2, from the lipid/water interface. This is in agreement with KTP-NH2 having a higher affinity for lipids, as desired.

rats = test: Rota-rod test (motor ability); assay type: in vivo, rat; conditions: 3.23 mg/100 g of body mass
Protocol: To evaluate the motor ability of animals after being injected with the drug (3.23 mg/100 g of body mass), the Rota-rod test was used. Briefly, the animal is placed on a wheel and run in balanced position; if balance is lost, the animal falls.

rats (Wister, male) [2] = test: Tail Flick test; assay type: in vivo, rat
Protocol: In vivo behavioural anti-nociception tests were carried out in rats (Wister, male). Unless otherwise stated, compounds were administered by intra-peritoneal (i.p.) injection. For most assays, the Tail Flick and the Hot Plate tests were used.
The tail-flick test (D'Amour F. E., Smith D. L. 1941. A method for determining the loss of pain sensation. J Pharmacol Exp Ther 1941; 72:74-79) is a standard investigative tool for pain and analgesia assessment in rodents. It is based on a spinal reflex response of the tail to radiant heat. Pain sensitivity in rats was measured as they responded to the application of radiant heat to a small area of their tails. The rat's tail was placed over a window located on a platform and subjected to irradiation by an intense light beam (10 W). When the rat feels discomfort, it flicks its tail which automatically stops the timer. The reaction time from activation of the light beam to the tail flick is automatically presented on a digital display. A cut-off time of 24 s was applied. Animal reaction time is a measurement of animal resistance to pain and is used to measure efficacy of analgesics.

[3] = Cytotoxicity (LDH release and ATP); assay type: cell-based; conditions: human hepatocytes; LDH and ATP determination; read-out: LC50 (the source's name)
Protocol: Cytotoxicity was assessed with a cell-based assay using human hepatocytes. Cell death was assayed by quantifying plasma membrane damage or rupture through measurement of the release of lactate dehydrogenase (LDH) (Legrand, C. et al. 1992. Lactate dehydrogenase (LDH) activity of the cultured eukaryotic cells as marker of the number of dead cells in the medium. J. Biotechnol. 25: 231-243), a stable cytoplasmic enzyme present in most cells. Determination of cell viability was performed by quantifying ATP (Cree I. A and Andreotti P. E. 1997. Measurement of cytotoxicity by ATP-based luminescence assay in primary cell cultures and cell lines. Toxicology in vitro, 11: 553-556), a marker for cell viability because it is present in all metabolically active cells and the concentration declines very rapidly when the cells undergo necrosis or apoptosis.

rats (Wister, male) [4] = test: Histological alterations in liver, kidney and spleen; assay type: in vivo, rat; conditions: hematoxylin/eosin; 3.23 mg/100 g i.p. seven days
Protocol: (§1) The toxicological studies were carried out with rats (Wister, male) injected i.p. once a day with 3.23 mg/100 g body mass during seven days.
For investigation of histological alterations in liver, kidney and spleen hematoxylin/eosin-stained sections of fixed tissue were used.

CYP3A4 = CYP3A4 (Homo sapiens, UniProt P08684); test: CYP inhibition; assay type: in vitro ADME; conditions: probe substrates midazolan and testosterone
Excerpt: CYP3A4 is one of the most important enzymes involved in the metabolism of xenobiotics in the body, promoting the oxidation of the largest range of substrates of all the CYPs and is present in the largest quantity of all the CYPs in the liver.

[5] = Partition into lipid bilayer vesicles (fluorescence titration); assay type: physicochemical; conditions: mammal-mimetic lipid bilayer vesicle; numerical treatment of fluorescence titration
Excerpt: We performed biophysical studies using fluorescent methodologies in order to characterize the interaction of KTP-NH2 with liposomes representing human cell membranes (Santos N. C., Prieto M. and Castanho M. A. 2003. Quantifying molecular partition into model systems of biomembranes: an emphasis on optical spectroscopic methods. Biochim Biophys Acta 1612: 123-135.). A clear interaction of KTP-NH2 with the lipid bilayers was observed. […] When titrated with a mammal-mimetic lipid bilayer vesicle (circles), the fluorescence intensity of the phenolic moiety increases due to insertion in the apolar environment created by the lipids. The POPC system mimetizes the external layer of human cell membranes, whereas POPG lipidic mixture mimetizes the internal layer of human cell membranes.
In order to confirm that these plasma-stable KTP-NH2 derivatives maintained their lipophilicity, their potential interaction with human cell membranes was assessed. Again, we performed biophysical studies using fluorescent methodologies (Santos N. C., Prieto M. and Castanho M. A. 2003. Quantifying molecular partition into model systems of biomembranes: an emphasis on optical spectroscopic methods. Biochim Biophys Acta 1612: 123-135.).

rats (Wister, male) [6] = test: Hepatotoxicity markers in plasma; assay type: in vivo, rat
Protocol: as §1
Liver is the major organ of toxicity. Blood samples were collected and the following hepatotoxicity markers were assayed in the plasma: • Alanine transaminase (ALT), • Aspartate transaminase (AST) • Alkaline phosphatase (ALP) • Total bilirubin (TBILI) • Gamma glutamyl transpeptidase (GGT)
Increased levels of the liver enzymes ALT, AST, ALP and GGT in the plasma would indicate lesions in liver. Increased RBL would be a sign of faulty bilirubin production/hemolysis and/or bilirubin metabolism (in liver).

Chain of CYP3A4 (P08684 whole entry): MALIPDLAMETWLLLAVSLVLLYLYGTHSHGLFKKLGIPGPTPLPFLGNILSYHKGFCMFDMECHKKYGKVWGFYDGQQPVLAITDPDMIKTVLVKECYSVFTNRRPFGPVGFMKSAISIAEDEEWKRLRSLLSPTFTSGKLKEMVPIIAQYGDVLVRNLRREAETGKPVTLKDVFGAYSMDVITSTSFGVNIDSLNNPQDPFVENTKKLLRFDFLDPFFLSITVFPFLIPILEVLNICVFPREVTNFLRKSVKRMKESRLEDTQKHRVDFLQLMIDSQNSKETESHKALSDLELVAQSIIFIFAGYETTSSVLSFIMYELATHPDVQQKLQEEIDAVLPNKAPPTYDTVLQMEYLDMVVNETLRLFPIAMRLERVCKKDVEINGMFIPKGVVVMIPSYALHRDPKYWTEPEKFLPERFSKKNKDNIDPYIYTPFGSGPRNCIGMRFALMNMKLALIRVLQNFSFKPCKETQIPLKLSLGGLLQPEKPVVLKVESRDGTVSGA

N=C(N)NCCC[C@H](NC(=O)[C@@H](N)Cc1ccc(O)cc1)C(N)=O [KTP-NH2, L-Tyr-L-Arg-NH2]
depth of insertion from the lipid/water interface [1]: 4 Å
motor ability, loss of balance (rats): No loss of balance/equilibrium
response after chronic administration (rats (Wister, male) [2]; Tail Flick, 3.23 mg/100 g once a day for seven days vs single injection): very similar profile to the control
analgesic effect compared with ibuprofen (rats (Wister, male) [2]; Tail Flick, i.p.): more durable effect
duration of anti-nociceptive response (rats (Wister, male) [2]; Tail Flick, i.p., rat): 45 min
smallest dose tested with statistical significance (rats (Wister, male) [2]; Tail Flick, i.p., rat): 2.45 mg for 100 g of body mass
analgesic efficacy after oral administration (rats (Wister, male) [2]; Tail Flick, oral, rat): slight delay of the onset of effect
effect on tail flick latency (rats (Wister, male) [2]; i.p., rat): clear anti-nociceptive response
analgesia after pretreatment with naloxone (rats (Wister, male) [2]; tail-flick, naloxone 0.5 mg/100 g 10 min before, KTP-NH2 3 mg/100 g): completely antagonized
CC50 [3]: > 125 µM
histological alterations in kidney and spleen (rats (Wister, male) [4]): no histological modifications
histological alterations in liver (rats (Wister, male) [4]): no sign of hepatic necrosis
CYP3A4 inhibition (CYP3A4): not to inhibit
local concentration in the model membrane of mammals relative to surrounding bulk aqueous phase [5]: approx. 2500 fold
GGT in plasma (rats (Wister, male) [6]; i.p. once a day 3.23 mg/100 g for seven days): trace amounts, below the detection limit
hepatotoxicity markers AST, ALT, ALP, total bilirubin in plasma (rats (Wister, male) [6]; i.p. once a day 3.23 mg/100 g for seven days vs control): no toxic effects were detected
